Assay [1] relates to MIAPACA-2 cell line. Briefly: In vitro cell proliferation assay (CCK-8) in MIAPACA-2 cell line. Type of assay: cell-based. The settings on record: Homo sapiens, MIA PaCa-2, 72 hours; for inhibition at 3 µM: TC1: Test Concentration of 3 uM; for inhibition at 10 µM: TC2: Test Concentration of 10 uM. Here is the method:
(§1) Growth inhibition assays is to be carried out using 10% FBS supplemented media. Cells are to be seeded at a desired concentration of 1,500-6,000 cells/well in a 96-well plate. Test compounds at a concentration range from 1 to 30 uM will be added after 24 hours. Growth will be assessed using the CCK-8 kit for measuring reduction at 0 h (prior to the addition of the test compound) and 72 hours after the addition of test compound. Absorbance read on a BIO-RAD iMark Microplate or any equivalent microplate reader at a wavelength of 450 nm. Data was analysed and percent inhibition due to the test compound compared to the control is calculated accordingly.

Assay [2] concerns NCI-H358 cell line. Briefly: In vitro cell proliferation assay (CCK-8) in NCI-H358 cell line. Type of assay: cell-based. The settings on record: Homo sapiens, 72 hours; for inhibition at 3 µM: TC1: Test Concentration of 3 uM; for inhibition at 10 µM: TC2: Test Concentration of 10 uM. On the procedure:
as §1

Where only a bound is given, the exact number is not on record here.

As a reminder, the inhibition is how much of the control response was suppressed. Take `C=C(F)C(=O)N1CCN(c2nc(OC[C@@H]3CCCN3C)c(C#N)c3c2CCN(c2cccc4cccc(Cl)c24)C3)C[C@H]1CC#N` [Ex 28, 6-(8-chloronaphthalen-1-yl)-1-((R)-3-(cyanomethyl)-4-(2-fluoroacryloyl)piperazin-1-yl)-3-(((S)-1-methylpyrrolidin-2-yl)methoxy)-5,6,7,8-tetrahydro-2,6-naphthyridine-4-carbonitrile]: in assay [1], the inhibition at 3 µM was in the range of 75 to 100% and the inhibition at 10 µM fell in the range of 75 to 100%. Besides, in assay [2], the inhibition at 3 µM lay in the range of 50 to 75% and the inhibition at 10 µM lay in the range of 75 to 100%. As for `C=CC(=O)N1CCN(c2nc(N3CC(C)OC(C)C3)c(C#N)c3c2CCN(c2cccc4ccccc24)C3)CC1` (stereo not shown) [Ex 52, 1-(4-acryloylpiperazin-1-yl)-3-(2,6-dimethylmorpholino)-6-(naphthalen-1-yl)-5,6,7,8-tetrahydro-2,6-naphthyridine-4-carbonitrile], the inhibition at 10 µM in assay [1] and in assay [2] was 75 to 100% each time. With `C=CC(=O)N1CCN(c2nc(N3CCN(S(C)(=O)=O)CC3)c(C#N)c3c2CCN(c2cccc4ccccc24)C3)CC1` [Ex 53, 1-(4-acryloylpiperazin-1-yl)-3-(4-(methylsulfonyl)piperazin-1-yl)-6-(naphthalen-1-yl)-5,6,7,8-tetrahydro-2,6-naphthyridine-4-carbonitrile], the inhibition at 10 µM in assay [1] and in assay [2] was 75 to 100% each time. In assay [2], `C=CC(=O)N1CCN(c2nc(N3CCN(C)CC3)c(C#N)c3c2CCN(Cc2ccccc2)C3)CC1CC#N` (stereo not shown) [Ex 36, 1-(4-acryloyl-3-(cyanomethyl)piperazin-1-yl)-6-benzyl-3-(4-methylpiperazin-1-yl)-5,6,7,8-tetrahydro-2,6-naphthyridine-4-carbonitrile] came in with an inhibition at 10 µM of 25 to 50%.

Turning to `C=CC(=O)N1CCN(c2nc(OC[C@@H]3CCCN3C)c(C#N)c3c2CCN(c2cccc4cccc(Cl)c24)C3)CC1CC#N` (single isomer, unassigned) [Ex 24], the inhibition at 3 µM in assay [1] and in assay [2] was 75 to 100% each time. Besides, the inhibition at 10 µM in assay [1] and in assay [2] was 75 to 100% in each case. `C=C(F)C(=O)N1CCN(c2nc(N3CCN(C(=O)CC)CC3)c(C#N)c3c2CCN(c2cccc4ccccc24)C3)CC1` [Ex 57, 1-(4-(2-fluoroacryloyl)piperazin-1-yl)-6-(naphthalen-1-yl)-3-(4-propionylpiperazin-1-yl)-5,6,7,8-tetrahydro-2,6-naphthyridine-4-carbonitrile] yielded an inhibition at 10 µM in assay [2] of 75 to 100%. Still for that read-out and setting: with `C=CC(=O)N1CCN(c2nc(N3CCCCC3)c(C#N)c3c2CCN(c2cccc4ccccc24)C3)CC1` [Ex 44, 1-(4-acryloylpiperazin-1-yl)-6-(naphthalen-1-yl)-3-(piperidin-1-yl)-5,6,7,8-tetrahydro-2,6-naphthyridine-4-carbonitrile] the figure was at most 25%; with `C=CC(=O)N1CCN(c2nc(N3CCN(C(=O)C=C)CC3)c3c(c2C#N)CN(c2cccc4sccc24)CC3)CC1` [Ex 47, 1,3-bis(4-acryloylpiperazin-1-yl)-6-(benzo[b]thiophen-4-yl)-5,6,7,8-tetrahydro-2,6-naphthyridine-4-carbonitrile], 75 to 100%. `C=C(F)C(=O)N1CCN(c2nc(OC[C@@H]3CCCN3C)c(C#N)c3c2CCN(c2cccc4cccc(Cl)c24)C3)C[C@@H]1CC#N` [Ex 27, 6-(8-chloronaphthalen-1-yl)-1-((S)-3-(cyanomethyl)-4-(2-fluoroacryloyl)piperazin-1-yl)-3-(((S)-1-methylpyrrolidin-2-yl)methoxy)-5,6,7,8-tetrahydro-2,6-naphthyridine-4-carbonitrile]: in assay [2], the inhibition at 3 µM is 50 to 75% and the inhibition at 10 µM lay within 75 to 100%. On to `C=CC(=O)N1CCN(c2nc(N3CCOCC3)c(C#N)c3c2CCN(Cc2ccccc2)C3)CC1` [Ex 34, 1-(4-acryloylpiperazin-1-yl)-6-benzyl-3-morpholino-5,6,7,8-tetrahydro-2,6-naphthyridine-4-carbonitrile], for which the inhibition at 10 µM in assay [2] was 25 to 50%. Still for that read-out and setting: with `C=CC(=O)N1CCN(c2ncc(C#N)c3c2CCN(c2cccc4ccccc24)C3)CC1` [Ex 56, 1-(4-acryloylpiperazin-1-yl)-6-(naphthalen-1-yl)-5,6,7,8-tetrahydro-2,6-naphthyridine-4-carbonitrile] the figure was at most 25%.

With `C=CC(=O)N1CCN(c2nc(N3CCN(C)CC3)c(C#N)c3c2CCN(c2cccc4ccccc24)C3)CC1` [Ex 41, 1-(4-acryloylpiperazin-1-yl)-3-(4-methylpiperazin-1-yl)-6-(naphthalen-1-yl)-5,6,7,8-tetrahydro-2,6-naphthyridine-4-carbonitrile], in assay [2], the inhibition at 10 µM was in the range of 25 to 50%. Still for that read-out and setting: under `C=CC(=O)N1CCN(c2nc(N3CCN(C(=O)C=C)CC3)c3c(c2C#N)CN(c2cccc4ccccc24)CC3)CC1` [Ex 46, 1,3-bis(4-acryloylpiperazin-1-yl)-6-(naphthalen-1-yl)-5,6,7,8-tetrahydro-2,6-naphthyridine-4-carbonitrile] stands 75 to 100%.

For `C=CC(=O)N1CCN(c2nc(OC[C@@H]3CCCN3C)c(C#N)c3c2CCN(c2cccc4cccc(Cl)c24)C3)CC1CC#N` (mixture of isomers) [Ex 23, 1-(4-acryloyl-3-(cyanomethyl)piperazin-1-yl)-6-(8-chloronaphthalen-1-yl)-3-(((S)-1-methylpyrrolidin-2-yl)methoxy)-5,6,7,8-tetrahydro-2,6-naphthyridine-4-carbonitrile], the inhibition at 3 µM in assay [1] and in assay [2] was 75 to 100% throughout. Moreover, the inhibition at 10 µM in assay [1] and in assay [2] was 75 to 100% in each case. For the molecule `C=CC(=O)N1CCN(c2nc(N3CCN(C(=O)CC)CC3)c(C#N)c3c2CCN(c2cccc4ccccc24)C3)CC1` [Ex 48, 1-(4-acryloylpiperazin-1-yl)-6-(naphthalen-1-yl)-3-(4-propionylpiperazin-1-yl)-5,6,7,8-tetrahydro-2,6-naphthyridine-4-carbonitrile], the inhibition at 10 µM in assay [2] was 75 to 100%.

For the molecule `C=CC(=O)N1CCN(c2nc(N3CCN(C)CC3)c(C#N)c3c2CCN(Cc2ccccc2)C3)[C@@H](C)C1` [Ex 38, (S)-1-(4-acryloyl-2-methylpiperazin-1-yl)-6-benzyl-3-(4-methylpiperazin-1-yl)-5,6,7,8-tetrahydro-2,6-naphthyridine-4-carbonitrile], the inhibition at 10 µM in assay [2] was at most 25%. Same read-out and setting: with `C=CC(=O)N1CCN(c2nc(N3CCN(C)CC3)c(C#N)c3c2CCN(Cc2ccccc2)C3)CC1` [Ex 35, 1-(4-acryloylpiperazin-1-yl)-6-benzyl-3-(4-methylpiperazin-1-yl)-5,6,7,8-tetrahydro-2,6-naphthyridine-4-carbonitrile] the figure was 25 to 50%. Consider `C=CC(=O)N1CCN(c2nc(N3CCN(CC)CC3)c(C#N)c3c2CCN(c2cccc4ccccc24)C3)CC1` [Ex 54, 1-(4-acryloylpiperazin-1-yl)-3-(4-ethylpiperazin-1-yl)-6-(naphthalen-1-yl)-5,6,7,8-tetrahydro-2,6-naphthyridine-4-carbonitrile], for which the inhibition at 10 µM in assay [1] and in assay [2] was 75 to 100% each time. Take `C=CC(=O)N1CCN(c2nc(OC[C@@H]3CCCN3C)c(C#N)c3c2CCN(c2cccc4ccccc24)C3)CC1` [Ex 55, (S)-1-(4-acryloylpiperazin-1-yl)-3-((1-methylpyrrolidin-2-yl)methoxy)-6-(naphthalen-1-yl)-5,6,7,8-tetrahydro-2,6-naphthyridine-4-carbonitrile]: the inhibition at 10 µM in assay [1] and in assay [2] was 75 to 100% in each case.

`C=CC(=O)N1CCN(c2nc(N3CCN(C)CC3)c(C#N)c3c2CCN(Cc2ccccc2)C3)[C@H](C)C1` [Ex 39, (R)-1-(4-acryloyl-2-methylpiperazin-1-yl)-6-benzyl-3-(4-methylpiperazin-1-yl)-5,6,7,8-tetrahydro-2,6-naphthyridine-4-carbonitrile] had an inhibition at 10 µM in assay [2] of 25 to 50%.

The values are drawn from US20240300942A1, “SMALL MOLECULES FOR TREATEMENT OF CANCER” (VRise Therapeutics Inc., priority 2021, published 2024).
